# Measured values reported in patent US7637980B2, “Method of increasing photosynthesis in plants comprising an exposure thereof to lipochitooligosaccharides and compositions therefor” (McGill University, priority 1999, dated 2009).
# Experiments:
# Format in all cases: in vivo
# [1] = system: soybean (cv OAC Bayfield); test: Photosynthesis of soybean under field conditions (1999)
# Method: (§1) The soybean experiment was conducted at the Lods Agronomy Research Centre, McGill University, Macdonald Campus, Ste-Anne-de-Bellevue, Quebec, Canada during the period June to September, 1999. A randomized complete block design with three blocks was followed. The plot size was 2×4 m with a row to row spacing of 25 cm and 10 cm between plants within a row. Seeds of soybean (cv OAC Bayfield), treated with commercial Bradyrhizobium japonicum inoculant (Bios Agriculture Inc., Quebec, Canada) at the rate of 3 g per kilogram of seed, were hand planted.
# (§2) At 25 days after planting twenty plants in each plot were randomly marked and sprayed until dripping with LCO solutions (10^−6, 10^−8 and 10^−10M) containing 0.02% Tween 20 with a hand sprayer. The plants on either side, within the row, of the marked plants were also sprayed. A second spray was carried out at flowering stage and a third spray at pod filling.
# (§3) As with the indoor experiments, photosynthetic readings were taken every day for five days after the application of LCO. For soybean additional developmental and agronomic data were collected. The first harvest was conducted at 25 days after the first spray treatment. Five plants were harvested from each plot and the following growth variables were analyzed: plant height, number of branches, number of leaves, leaf area, number of flower clusters, number of pods, number of nodules, dry weights of leaves, stem and roots. The final harvest was conducted after physiological maturity of the plants (Fehr et al., 1971); at this time the remaining fifteen treated plants from each plot were harvested and data on number of branches, number of pods, number of seeds and grain yield per plant was collected.
# apple (cv Empire) = test: Photosynthesis of field-grown apple after LCO spray
# Method: (§4) These experiments were conducted at the horticultural research facility of McGill University, Ste-Anne-de-Bellevue, Quebec, Canada during July 2000. LCO of different concentrations (10^−8, and 10^−10M) were prepared as described above. Branches of apple (cv Empire) and Grapes (cv De Chaunac) were sprayed with LCO and the photosynthesis was observed every 24 h for five days with a Li-Cor 6400 portable photosynthesis system (Li-Cor Inc., USA). Each treatment was applied to three branches from the same plant. Care was taken to ensure that the branches were on the same level and orientation. Part of each branch was sprayed with LCO and the remaining part served as a control. The control portion of the branch was sprayed with distilled water containing the same amount of Tween 20 as the LCO treatment solution. Observations were taken on 15 leaves per replicate for each treatment. For both apple and grape the entire procedure was repeated twice on two different plants.
# corn (Pioneer 3921) = test: Photosynthesis of field-grown corn after LCO spray
# Method: as §3, with “Single row corn plots (Pioneer 3921) were established during the 1999 and 2000 cropping seasons. The rows were 75 cm apart and their was an average of 20 cm between plants. The plants were sprayed at 40 DAP. Photosynthetic rates were recorded each day for 5 days after spray application. However, multiple sprays of LCO on corn were not possible due to limitations of LCO supplies, and because only single row plots were used yields were not recorded. As” for “As”
# Grapes (cv De Chaunac) = test: Photosynthesis of field-grown grape after LCO spray
# Method: as §4
# [2] = system: soybean (cv OAC Bayfield); test: Growth and yield of soybean under field conditions (1999)
# Method: as §1, §2, §3
substance,measurement,setting,value
"Nod Bj V (C18:1, MeFeu)",stomatal conductance,[1],increases
same,transpiration,[1],increased
same,photosynthetic rate,"[1]; 10^−6 M, day three",24 µmol m^−2 s^−1
same,Ci,apple (cv Empire),without any effect
same,stomatal conductance,apple (cv Empire),increases
same,transpiration,apple (cv Empire),increased
same,photosynthetic rate,"apple (cv Empire); 10^−8 M LCO, five days after treatment",14.1 μmol CO2 m^−2s^−1
same,Ci,corn (Pioneer 3921); field grown plants,no such effect
same,"increase of photosynthetic rate, maximum","corn (Pioneer 3921); field, two days after treatment application",approximately 10%
same,stomatal conductance,"Grapes (cv De Chaunac); 10^−10 M, three days after treatment",increase
same,photosynthetic rates,Grapes (cv De Chaunac); greatest three days after treatment with 10^−10 M,increases
same,Leaf area/Plant,"[2]; LCO 10^−6 M, field",2306.3 cm^2
same,No. Branches/Plant,"[2]; LCO 10^−6 M, field",4.2
same,No. Leaves/Plant,"[2]; LCO 10^−6 M, field",29.4
same,No. Nodules/Plant,"[2]; LCO 10^−6 M, field",63.5
same,No. Pod clusters/Plant,"[2]; LCO 10^−6 M, field",24.3
same,No. Pods/Plant,"[2]; LCO 10^−6 M, field",42.9
same,No. seeds/Plant,"[2]; LCO 10^−6 M, field",104.7
same,Plant height,"[2]; LCO 10^−6 M, field",78.5 cm
same,Root Dry weight/plant,"[2]; LCO 10^−6 M, field",3.0 gm
same,Seed yield/plant,"[2]; LCO 10^−6 M, field",22.1 gm
same,Shoot dry weight/Plant,"[2]; LCO 10^−6 M, field",24.7 gm
same,Leaf area/Plant,"[2]; LCO 10^−8 M, field",2120.4 cm^2
same,No. Branches/Plant,"[2]; LCO 10^−8 M, field",5.1
same,No. Leaves/Plant,"[2]; LCO 10^−8 M, field",25.4
same,No. Nodules/Plant,"[2]; LCO 10^−8 M, field",84.6
same,No. Pod clusters/Plant,"[2]; LCO 10^−8 M, field",24.8
same,No. Pods/Plant,"[2]; LCO 10^−8 M, field",42.4
same,No. seeds/Plant,"[2]; LCO 10^−8 M, field",106.3
same,Plant height,"[2]; LCO 10^−8 M, field",85.8 cm
same,Root Dry weight/plant,"[2]; LCO 10^−8 M, field",2.3 gm
same,Seed yield/plant,"[2]; LCO 10^−8 M, field",21 gm
same,Shoot dry weight/Plant,"[2]; LCO 10^−8 M, field",23.7 gm
same,Leaf area/Plant,"[2]; LCO 10^−10 M, field",1513.1 cm^2
same,No. Branches/Plant,"[2]; LCO 10^−10 M, field",3.4
same,No. Leaves/Plant,"[2]; LCO 10^−10 M, field",22.2
same,No. Nodules/Plant,"[2]; LCO 10^−10 M, field",68.3
same,No. Pod clusters/Plant,"[2]; LCO 10^−10 M, field",28.3
same,No. Pods/Plant,"[2]; LCO 10^−10 M, field",48.0
same,No. seeds/Plant,"[2]; LCO 10^−10 M, field",118.1
same,Plant height,"[2]; LCO 10^−10 M, field",83.5 cm
same,Root Dry weight/plant,"[2]; LCO 10^−10 M, field",2.3 gm
same,Seed yield/plant,"[2]; LCO 10^−10 M, field",22.6 gm
same,Shoot dry weight/Plant,"[2]; LCO 10^−10 M, field",19.8 gm
same,Plant height,"[2]; field 1999, LCO treatment vs control",not affected
same,grain yield enhanced by,"[2]; field, spray at seedling, flowering and podfilling stages",33-44%
